pIC50: −log10 of the molar value. Active and inactive are the calls of the source. No cut-off for these calls is given here.

Test [1] addresses T1, 11-beta-hydroxysteroid dehydrogenase 1 (Mus musculus, UniProt P50172). Put plainly: Inhibition of C57BL/6 mouse 11betaHSD1 in presence of human serum.
Test [2] has as its target 11-beta-hydroxysteroid dehydrogenase 1 (Homo sapiens, UniProt P28845). Put plainly: Inhibition of human 11betaHSD1 expressed in CHO cells by cell based assay.
Test [3] deals with T1, 11-beta-hydroxysteroid dehydrogenase 1. As to the kind of experiment: Inhibition of mouse 11betaHSD1 expressed in CHO cells by cell based assay.
In test [4] the target is T2, 11-beta-hydroxysteroid dehydrogenase type 2 (Homo sapiens) (UniProt P80365).
T2 sequence (whole entry): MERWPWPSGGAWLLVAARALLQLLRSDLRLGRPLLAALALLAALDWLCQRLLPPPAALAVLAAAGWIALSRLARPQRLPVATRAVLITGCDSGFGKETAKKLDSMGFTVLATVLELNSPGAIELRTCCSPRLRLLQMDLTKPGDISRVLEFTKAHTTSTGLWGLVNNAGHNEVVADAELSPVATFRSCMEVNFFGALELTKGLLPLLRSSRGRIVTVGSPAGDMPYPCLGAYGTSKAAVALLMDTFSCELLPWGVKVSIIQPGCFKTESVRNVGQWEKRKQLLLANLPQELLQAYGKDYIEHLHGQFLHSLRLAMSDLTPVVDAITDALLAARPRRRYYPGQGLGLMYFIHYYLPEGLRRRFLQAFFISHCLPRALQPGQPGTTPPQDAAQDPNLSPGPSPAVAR
As to the kind of experiment: Inhibition of 11betaHSD2 at 100 uM by cell based assay.

T1 sequence (P50172 whole entry): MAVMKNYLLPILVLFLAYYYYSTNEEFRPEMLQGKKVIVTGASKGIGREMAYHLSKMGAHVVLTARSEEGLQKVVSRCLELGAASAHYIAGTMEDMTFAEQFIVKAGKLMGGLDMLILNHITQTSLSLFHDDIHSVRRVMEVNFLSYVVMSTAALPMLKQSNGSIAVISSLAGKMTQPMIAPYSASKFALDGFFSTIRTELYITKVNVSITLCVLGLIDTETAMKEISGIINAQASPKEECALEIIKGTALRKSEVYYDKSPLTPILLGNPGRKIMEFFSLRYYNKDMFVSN
Sequence of 11-beta-hydroxysteroid dehydrogenase 1 (Homo sapiens, UniProt P28845) (P28845 whole entry): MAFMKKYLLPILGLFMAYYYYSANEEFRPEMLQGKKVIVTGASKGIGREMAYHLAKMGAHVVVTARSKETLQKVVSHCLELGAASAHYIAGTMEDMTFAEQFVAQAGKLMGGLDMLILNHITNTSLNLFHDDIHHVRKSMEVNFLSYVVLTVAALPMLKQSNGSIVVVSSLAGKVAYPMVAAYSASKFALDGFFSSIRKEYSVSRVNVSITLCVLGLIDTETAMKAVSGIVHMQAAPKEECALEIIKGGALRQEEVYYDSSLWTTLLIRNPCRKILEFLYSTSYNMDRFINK

Consider `C[C@@H]1CN(c2ccc(F)cc2C(F)(F)F)CCN1S(=O)(=O)c1cccc(N2CC[C@@H](O)C2)c1`, for which the pIC50 (in general, −log10 of the IC50, conventionally taken in molar units) was 7.89 in test [1], 8.00 in test [2] and 7.92 in test [3]. Besides, in test [4], the result was inactive.

As for `CC(C)N1CCN(c2cccc(S(=O)(=O)N3CCN(c4ccc(F)cc4C(F)(F)F)C[C@H]3C)c2)CC1`, the pIC50 is 6.60 in test [1], 6.31 in test [2] and 6.82 in test [3]. For the same compound, in test [4], the outcome was inactive.

`CCNC(=O)N1CCN(c2cccc(S(=O)(=O)N3CCN(c4ccc(F)cc4C(F)(F)F)C[C@H]3C)c2)CC1`: the pIC50 was 6.66 in test [1], 6.43 in test [2] and 7.92 in test [3]. The outcome in test [4] was inactive.

Consider `C[C@@H]1CN(c2ccc(F)cc2C(F)(F)F)CCN1S(=O)(=O)c1cccc(N2CCCC2)c1`, for which the negative logarithm of the IC50 (pIC50) in test [1] is 7.25; in test [2], 7.21; in test [3] it was 7.80. Besides, the result in test [4] was inactive.

`COC(=O)C1CCN(c2cccc(S(=O)(=O)N3CCN(c4ccc(F)cc4C(F)(F)F)C[C@H]3C)c2)C1` (stereo not given in full): the negative logarithm of the IC50 (pIC50) was 7.26 in test [1], 7.96 in test [2] and 8.00 in test [3]. Also, the result in test [4] was inactive.

In the case of `COC(=O)N1CCN(c2cccc(S(=O)(=O)N3CCN(c4ccc(F)cc4C(F)(F)F)C[C@H]3C)c2)CC1`, the pIC50 is 6.66 in test [1], 6.48 in test [2] and 7.96 in test [3]. The result in test [4] was inactive.

For `C[C@@H]1CN(c2ccc(F)cc2C(F)(F)F)CCN1S(=O)(=O)c1cccc(-n2cccn2)c1`, the negative logarithm of the IC50 (pIC50) in test [1] is 7.00; in test [2], 7.89; in test [3], 7.92. Also, the result in test [4] was inactive.

In the case of `C[C@@H]1CN(c2ccc(F)cc2C(F)(F)F)CCN1S(=O)(=O)c1cccc(N2CCCC2C(=O)O)c1` (stereo not given in full), the pIC50 was 7.49 in test [1], 7.16 in test [2] and 7.57 in test [3]. Moreover, the result in test [4] was inactive.

Turning to `CCN1CCN(c2cccc(S(=O)(=O)N3CCN(c4ccc(F)cc4C(F)(F)F)C[C@H]3C)c2)CC1`, the pIC50 in test [1] was 7.35; in test [2] it was 7.52; in test [3] it was 7.54. Also, the result in test [4] was inactive.

As to `C[C@@H]1CN(c2ccc(F)cc2C(F)(F)F)CCN1S(=O)(=O)c1cccc(-n2cnnc2)c1`, the negative logarithm of the IC50 (pIC50) in test [1] was 6.92; in test [2] it was 6.92; in test [3], 6.64. Also, the outcome in test [4] was inactive.

On to `C[C@@H]1CN(c2ccc(F)cc2C(F)(F)F)CCN1S(=O)(=O)c1cccc(N2CCC(C(N)=O)C2)c1` (stereo not given in full), for which the pIC50 in test [1] is 7.85; in test [2] it was 7.49; in test [3], 7.96. Moreover, the outcome in test [4] was inactive.

As for `C[C@@H]1CN(c2ccc(F)cc2C(F)(F)F)CCN1S(=O)(=O)c1cccc(N2CC[C@H](O)C2)c1`, the negative-log IC50 (pIC50) was 7.39 in test [1], 7.55 in test [2] and 7.70 in test [3]. The result in test [4] was inactive.

Take `C[C@@H]1CN(c2ccc(F)cc2C(F)(F)F)CCN1S(=O)(=O)c1cccc(N2CCNCC2)c1`: the figures for the negative logarithm of the IC50 (pIC50) in test [1], in test [2] and in test [3] were 6.72, < 5.00 and 6.80, respectively. Besides, the result in test [4] was inactive.

For `C[C@@H]1CN(c2ccc(F)cc2C(F)(F)F)CCN1S(=O)(=O)c1cccc(-n2ccnc2)c1`, the pIC50 in test [1] was 7.14; in test [2], 7.13; in test [3] it was 7.96. Moreover, the outcome in test [4] was inactive.

Regarding `C[C@@H]1CN(c2ccc(F)cc2C(F)(F)F)CCN1S(=O)(=O)c1cccc(N2CCCCC2)c1`, the pIC50 in test [1] was 7.17; in test [2] it was 7.82; in test [3], 8.00. In addition, in test [4], the result was inactive.

For the origin of these results see ChEMBL document CHEMBL1155083, “Piperazine sulfonamides as potent, selective, and orally available 11beta-hydroxysteroid dehydrogenase type 1 inhibitors with efficacy in the rat cortisone-induced hyperinsulinemia model” (J Med Chem, 2008).
